Type in all cases: cell-based
Test [1] has as its system S. aureus Smith. Kind of test: MIC against S. aureus Smith. The settings on record: Staphylococcus aureus. An excerpt:
|MIC: μg/ml (inoculum size = 10^5 /ml) |S = S. aureus Smith

The test system of test [2] is E. coli EC-14. Briefly: MIC against E. coli EC-14. The settings on record: Escherichia coli, EC14. From the text: |MIC: μg/ml (inoculum size = 10^5 /ml) |E = E. coli EC-14
Test [3] relates to Ps. aeruginosa SR-24. Briefly: MIC against Ps. aeruginosa SR-24. The settings on record: Pseudomonas aeruginosa, SR24. An excerpt:
|MIC: μg/ml (inoculum size = 10^5 /ml) |P = Ps. aeruginosa SR-24

Where [4] appears, read: Table I, S = S. aureus Smith, inoculum size = 10^5 /ml.
Setting [5] is: Table I, E = E. coli EC-14, inoculum size = 10^5 /ml.
Where [6] appears, read: Table I, P = Ps. aeruginosa SR-24, inoculum size = 10^5 /ml.
Where [7] appears, read: Table II, S (key, unit and inoculum given only in Table I).
The mark [8] stands for this setting: Table II, E (key, unit and inoculum given only in Table I).
[9] abbreviates: Table II, P (key, unit and inoculum given only in Table I).
Setting [10] is: Table III, S (key, unit and inoculum given only in Table I).
The mark [11] stands for this setting: Table III, E (key, unit and inoculum given only in Table I).
[12] abbreviates: Table III, P (key, unit and inoculum given only in Table I).

Converted amounts (≈) assume the structure as drawn. Counter-ions that a name gives are not always drawn.

Usually MIC stands for the lowest concentration found to suppress growth. Low readings indicate a more susceptible organism, high ones a less susceptible organism.

As for `CC(O)[C@H]1C(=O)N2C(C(=O)[O-])=C(C[n+]3ccc(N)cc3)[C@H](C)[C@H]12` (stereo partly drawn) [Table I No. 20], the results for the MIC in test [1] (setting [4]), in test [2] (setting [5]) and in test [3] (setting [6]) were 0.0125 µg/mL (≈ 0.0394 µM), 0.2 µg/mL (≈ 0.63 µM) and 6.25 µg/mL (≈ 19.7 µM), respectively.
As to `CC(O)[C@H]1C(=O)N2C(C(=O)[O-])=C(C[n+]3ccc(N)c(N)c3)[C@H](C)[C@H]12` (stereo partly drawn) [Table I No. 21], the figures for the MIC in test [1] (setting [4]), in test [2] (setting [5]) and in test [3] (setting [6]) were 0.0125 µg/mL (≈ 0.0376 µM), 0.2 µg/mL (≈ 0.602 µM) and 3.13 µg/mL (≈ 9.42 µM), respectively.
The like results for `CC(O)[C@H]1C(=O)N2C(C(=O)[O-])=C(C[n+]3ccc(N(C)C)cc3)[C@H](C)[C@H]12` (stereo partly drawn) [Table I No. 22] were, in that order, 0.0125 µg/mL (≈ 0.0362 µM), 0.1 µg/mL (≈ 0.29 µM) and 3.13 µg/mL (≈ 9.06 µM).
For `CC(O)[C@H]1C(=O)N2C(C(=O)[O-])=C(C[n+]3cccc(O)c3)[C@H](C)[C@H]12` (stereo partly drawn) [Table I No. 23], in that order: 0.05 µg/mL (≈ 0.157 µM), 0.2 µg/mL (≈ 0.628 µM) and 12.5 µg/mL (≈ 39.3 µM).
The like results for `COc1ccc[n+](CC2=C(C(=O)[O-])N3C(=O)[C@H](C(C)O)[C@H]3[C@H]2C)c1` (stereo partly drawn) [Table I No. 24] were, in that order, 0.025 µg/mL (≈ 0.0752 µM), 0.39 µg/mL (≈ 1.17 µM) and 3.13 µg/mL (≈ 9.42 µM).
For `COc1cc[n+](CC2=C(C(=O)[O-])N3C(=O)[C@H](C(C)O)[C@H]3[C@H]2C)cc1` (stereo partly drawn) [Table I No. 25], the minimum inhibitory concentration (MIC) in test [1] (setting [4]) stood at 0.025 µg/mL (≈ 0.0752 µM); in test [2] (setting [5]), 0.39 µg/mL (≈ 1.17 µM); in test [3] (setting [6]), 3.13 µg/mL (≈ 9.42 µM).
Consider `CSc1ccc[n+](CC2=C(C(=O)[O-])N3C(=O)[C@H](C(C)O)[C@H]3[C@H]2C)c1` (stereo partly drawn) [Table I No. 26], for which the figures for the MIC in test [1] (setting [4]), in test [2] (setting [5]) and in test [3] (setting [6]) were 0.0125 µg/mL (≈ 0.0359 µM), 0.39 µg/mL (≈ 1.12 µM) and 3.13 µg/mL (≈ 8.98 µM), respectively.
The like results for `CSc1cc[n+](CC2=C(C(=O)[O-])N3C(=O)[C@H](C(C)O)[C@H]3[C@H]2C)cc1` (stereo partly drawn) [Table I No. 27] were, in that order, 0.025 µg/mL (≈ 0.0718 µM), 0.2 µg/mL (≈ 0.574 µM) and 3.13 µg/mL (≈ 8.98 µM).
For `CC(O)[C@H]1C(=O)N2C(C(=O)[O-])=C(C[n+]3cccc(F)c3)[C@H](C)[C@H]12` (stereo partly drawn) [Table I No. 28], in that order: 0.025 µg/mL (≈ 0.078 µM), 0.39 µg/mL (≈ 1.22 µM) and 3.13 µg/mL (≈ 9.77 µM).
As to `CC(O)[C@H]1C(=O)N2C(C(=O)[O-])=C(C[N+]3(C)CCCC3)[C@H](C)[C@H]12` (stereo partly drawn) [Table II No. 1], the minimal inhibitory concentration (MIC) in test [1] (setting [7]) came to 0.025 µg/mL (≈ 0.0811 µM); in test [2] (setting [8]), 0.1 µg/mL (≈ 0.324 µM); in test [3] (setting [9]), 3.13 µg/mL (≈ 10.1 µM).
The like results for `CC(O)[C@H]1C(=O)N2C(C(=O)[O-])=C(C[N+]3(CC(N)=O)CCCC3)[C@H](C)[C@H]12` (stereo partly drawn) [Table II No. 2] were, in that order, 0.1 µg/mL (≈ 0.285 µM), 0.2 µg/mL (≈ 0.569 µM) and 12.5 µg/mL (≈ 35.6 µM).
The like results for `CC(O)[C@H]1C(=O)N2C(C(=O)[O-])=C(C[N+]3(CC(=O)O)CCCC3)[C@H](C)[C@H]12` (stereo partly drawn) [Table II No. 3] were, in that order, 0.39 µg/mL (≈ 1.11 µM), 0.39 µg/mL (≈ 1.11 µM) and 50 µg/mL (≈ 142 µM).
For `CC(O)[C@H]1C(=O)N2C(C(=O)[O-])=C(C[N+]3(C)CCCCC3)[C@H](C)[C@H]12` (stereo partly drawn) [Table II No. 4, 1β-methyl-2-(1-methylpiperidinio-1-yl)methyl-6α-(1-hydroxyethyl)-1-carba-2-penem-4-carboxylate], in that order: 0.025 µg/mL (≈ 0.0775 µM), 0.1 µg/mL (≈ 0.31 µM) and 3.13 µg/mL (≈ 9.71 µM).
As to `CC(O)[C@H]1C(=O)N2C(C(=O)[O-])=C(C[N+]34CCC(CC3)CC4)[C@H](C)[C@H]12` (stereo partly drawn) [Table II No. 5, 1β-methyl-2-(quinuclidinio-1-yl)-methyl-6α-(1-hydroxyethyl)-1-carba-2-penem-4-carboxylate], the minimum inhibitory concentration (MIC) in test [1] (setting [7]) amounted to 0.025 µg/mL (≈ 0.0748 µM); in test [2] (setting [8]), 0.2 µg/mL (≈ 0.598 µM); in test [3] (setting [9]) it was 6.25 µg/mL (≈ 18.7 µM).
For the compound `CC(O)[C@H]1C(=O)N2C(C(=O)[O-])=C(C[N+]34CCN(CC3)CC4)[C@H](C)[C@H]12` (stereo partly drawn) [Table II No. 6], the MIC in test [1] (setting [7]) is 0.1 µg/mL (≈ 0.298 µM); in test [2] (setting [8]) it was 0.39 µg/mL (≈ 1.16 µM); in test [3] (setting [9]), 6.25 µg/mL (≈ 18.6 µM).
As for `CC(O)[C@H]1C(=O)N2C(C(=O)[O-])=C(CN[n+]3ccccc3)[C@H](C)[C@H]12` (stereo partly drawn) [Table III No. 1], the results for the MIC in test [1] (setting [10]), in test [2] (setting [11]) and in test [3] (setting [12]) were 0.025 µg/mL (≈ 0.0788 µM), 0.39 µg/mL (≈ 1.23 µM) and 12.5 µg/mL (≈ 39.4 µM), respectively.
The like results for `CC(O)[C@H]1C(=O)N2C(C(=O)O)=C(CN3CCCC3)[C@H](C)[C@H]12` (stereo partly drawn) [Table III No. 2] were, in that order, 0.0125 µg/mL (≈ 0.0425 µM), 0.39 µg/mL (≈ 1.32 µM) and 12.5 µg/mL (≈ 42.5 µM).
For `CC(O)[C@H]1C(=O)N2C(C(=O)O)=C(CN3CCC(N)C3)[C@H](C)[C@H]12` (stereo partly drawn) [Table III No. 3], in that order: 0.05 µg/mL (≈ 0.162 µM), 0.78 µg/mL (≈ 2.52 µM) and 3.13 µg/mL (≈ 10.1 µM).
With `CC(O)[C@H]1C(=O)N2C(C(=O)O)=C(CN3CCCCC3)[C@H](C)[C@H]12` (stereo partly drawn) [Table III No. 4, 1β-methyl-2-(piperidin-1-yl)methyl-6α-(1-hydroxyethyl)-1-carba-2-penem-4-carboxylic acid sodium salt], the values for the MIC in test [1] (setting [10]), in test [2] (setting [11]) and in test [3] (setting [12]) were 0.0125 µg/mL, 1.56 µg/mL and 50 µg/mL, respectively.

Source of the values: patent publication US5064954A, “Process for producing halomethylcarbapenems” (Shionogi & Co., Ltd., priority 1990, dated 1991).
